Assay results reported in the NIST ThermoML archive (doi:10.1021/je0501843).

Assay: molar heat capacity at constant volume; wn = mass fraction of the nth substance listed
Settings: Fluid (supercritical or subcritical phases), Vacuum adiabatic calorimetry, w1 = 0.5001

FC(F)C(F)(F)F [pentafluoroethane] + FCF
Settings | molar heat capacity at constant volume [J/K/mol]
348 K, 6505 kPa | 75.76
348 K, 9225 kPa | 72.31
348 K, 14528 kPa | 69.08
349 K, 5380 kPa | 96.64
349 K, 6732 kPa | 76.89
349 K, 9535 kPa | 72.88
349 K, 14929 kPa | 70.2
350 K, 5486 kPa | 95.02
350 K, 5543 kPa | 91.24
350 K, 5720 kPa | 84.88
350 K, 6957 kPa | 76.37
350 K, 9844 kPa | 72.65
350 K, 15331 kPa | 69.99
351 K, 5591 kPa | 91.71
351 K, 5661 kPa | 90.24
351 K, 5866 kPa | 81.35
351 K, 7184 kPa | 75.16
351 K, 10153 kPa | 72.45
351 K, 15729 kPa | 68.92
352 K, 5697 kPa | 89.08
352 K, 5778 kPa | 87.68
352 K, 5877 kPa | 87.6
352 K, 6013 kPa | 80.15
352 K, 7411 kPa | 74.15
352 K, 10462 kPa | 72.57
352 K, 16128 kPa | 68.79
353 K, 5802 kPa | 88.36
353 K, 5898 kPa | 87.13
353 K, 6010 kPa | 87.42
353 K, 6163 kPa | 80.29
353 K, 7640 kPa | 75.09
353 K, 10771 kPa | 72.4
353 K, 16529 kPa | 69.17
354 K, 5907 kPa | 87.38
354 K, 6017 kPa | 86.01
354 K, 6144 kPa | 86.89
354 K, 6312 kPa | 80.47
354 K, 7867 kPa | 74.78
354 K, 11082 kPa | 72.54
354 K, 16929 kPa | 68.92
355 K, 6013 kPa | 85.59
355 K, 6136 kPa | 84.29
355 K, 6277 kPa | 85.22
355 K, 6460 kPa | 78.25
355 K, 8099 kPa | 73.81
355 K, 11393 kPa | 71.62
355 K, 17330 kPa | 68.05
356 K, 6119 kPa | 85.68
356 K, 6256 kPa | 84
356 K, 6409 kPa | 84.29
356 K, 6610 kPa | 77.58
356 K, 8331 kPa | 73.96
356 K, 11703 kPa | 71.68
356 K, 17728 kPa | 68.48
357 K, 6227 kPa | 86.16
357 K, 6375 kPa | 83.21
357 K, 6544 kPa | 84.6
357 K, 6762 kPa | 78.59
357 K, 8563 kPa | 73.79
357 K, 12015 kPa | 72.2
357 K, 18129 kPa | 68.93
358 K, 6332 kPa | 84.37
358 K, 6496 kPa | 82.34
358 K, 6679 kPa | 84.32
358 K, 6913 kPa | 78.26
358 K, 8795 kPa | 73.5
358 K, 12328 kPa | 72.12
358 K, 18529 kPa | 68.62
359 K, 6438 kPa | 82.91
359 K, 6616 kPa | 81.68
359 K, 6814 kPa | 82.54
359 K, 7064 kPa | 76.43
359 K, 9028 kPa | 72.9
359 K, 12639 kPa | 71.57
359 K, 18928 kPa | 68.27
360 K, 6544 kPa | 82.44
360 K, 6737 kPa | 80.97
360 K, 6948 kPa | 82
360 K, 7219 kPa | 76.78
360 K, 9258 kPa | 72.64
360 K, 12952 kPa | 70.73
361 K, 6650 kPa | 82.84
361 K, 6858 kPa | 80.53
361 K, 7085 kPa | 81.72
361 K, 7368 kPa | 77.24
361 K, 9493 kPa | 73.35
361 K, 13265 kPa | 71.22
362 K, 6758 kPa | 82.74
362 K, 6980 kPa | 80.56
362 K, 7222 kPa | 81.91
362 K, 7523 kPa | 75.41
362 K, 9726 kPa | 73.82
362 K, 13581 kPa | 70.53
363 K, 6864 kPa | 81.25
363 K, 7101 kPa | 80.13
363 K, 7357 kPa | 81.64
363 K, 7676 kPa | 75.63
363 K, 9958 kPa | 73.52
